Conditions: in water

## O=C([O-])c1cccc(S(=O)(=O)O)c1.[Na+]
278.15 K
  solubility (mole fraction): 0.0276
283.15 K
  solubility (mole fraction): 0.0296
288.15 K
  solubility (mole fraction): 0.032
293.15 K
  solubility (mole fraction): 0.0346
298.15 K
  solubility (mole fraction): 0.0372
303.15 K
  solubility (mole fraction): 0.0417
308.15 K
  solubility (mole fraction): 0.0459
313.15 K
  solubility (mole fraction): 0.0519
318.15 K
  solubility (mole fraction): 0.0584
323.15 K
  solubility (mole fraction): 0.0687

— BigSolDB 2.1
